ChEMBL document CHEMBL1132165, “Analogues of neuroactive polyamine wasp toxins that lack inner basic sites exhibit enhanced antagonism toward a muscle-type mammalian nicotinic acetylcholine receptor” (J Med Chem, 1999)

Experiments:
Conditions in all cases: TE-671
[1] = biological target: Acetylcholine receptor subunit alpha (Homo sapiens) (UniProt P02708)
Description: Proteolytic properties against human muscle type nicotinic Acetylcholine receptor(nAchr) from TE671 cells, expressed as acidity constant (pKa3)

[2] = biological target: Acetylcholine receptor subunit alpha (Homo sapiens) (UniProt P02708); remark: listed apart in the source
Description: Proteolytic properties against human muscle type nicotinic Acetylcholine receptor(nAchr) from TE671 cells, expressed as acidity constant (pKa2)

[3] = biological target: Acetylcholine receptor subunit alpha (Homo sapiens) (UniProt P02708); remark: listed apart in the source
Description: Proteolytic properties against human muscle type nicotinic Acetylcholine receptor(nAchr) from TE671 cells, expressed as acidity constant (pKa1)

[4] = biological target: Acetylcholine receptor subunit alpha (Homo sapiens) (UniProt P02708); test: […] properties against human muscle type nicotinic Acetylcholine receptor (nAchr) from TE671 cells, expressed as acidity constant (pKa1); assay type: functional, cell-based

Sequence of Acetylcholine receptor subunit alpha (Homo sapiens) (P02708 whole entry): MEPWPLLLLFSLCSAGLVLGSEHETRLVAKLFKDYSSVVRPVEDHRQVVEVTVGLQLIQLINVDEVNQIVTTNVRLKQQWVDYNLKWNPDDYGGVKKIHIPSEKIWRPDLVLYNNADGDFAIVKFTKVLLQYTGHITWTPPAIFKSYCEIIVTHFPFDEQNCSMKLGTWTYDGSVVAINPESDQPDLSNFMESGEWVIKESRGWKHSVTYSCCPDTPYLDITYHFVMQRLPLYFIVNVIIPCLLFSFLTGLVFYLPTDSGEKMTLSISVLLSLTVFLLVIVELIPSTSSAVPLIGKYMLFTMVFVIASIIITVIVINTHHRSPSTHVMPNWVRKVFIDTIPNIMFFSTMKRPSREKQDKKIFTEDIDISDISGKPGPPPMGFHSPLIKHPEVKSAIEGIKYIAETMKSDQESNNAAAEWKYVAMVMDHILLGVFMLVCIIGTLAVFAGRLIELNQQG

Row | SMILES | pKa3 [1] | pKa2 [2] | pKa1 [3] | pKa1 [4]
1 | CCCC(=O)NC(Cc1ccc(O)cc1)C(=O)NCCCOCCCCNCCCN (stereo unspecified) | 11.3 | 10.3 | 9.23 | –
2 | CCCC(=O)NC(Cc1ccc(O)cc1)C(=O)NCCCCCCCCNCCCN (stereo unspecified) | 11.4 | 10.2 | 9.32 | –
3 | CCCC(=O)NC(Cc1ccc(O)cc1)C(=O)NCCCNCCCCCCCCN (stereo unspecified) | 11.3 | 10.4 | 9.71 | –
4 | CCCC(=O)NC(Cc1ccc(O)cc1)C(=O)NCCCNCCCCOCCCN (stereo unspecified) | 10.9 | 10.2 | 9.47 | –
5 | CCCC(=O)NC(Cc1ccc(O)cc1)C(=O)NCCCOCCCCOCCCN (stereo unspecified) | – | 10.9 | – | 10
6 | CCCC(=O)NC(Cc1ccc(O)cc1)C(=O)NCCCCCCCCCCCCN (stereo unspecified) | – | 11.3 | – | 10.3
